Laboratory results taken from patent publication US20070059242A1, “METHODS TO IDENTIFY THERAPEUTIC AGENTS” (priority 2005, published 2007).

Assays:
J774A.1 macrophages = assay: Uptake and localization in macrophages by fluorescence microscopy; format: cell-based, murine; conditions: 50 μM dansyl derivative, 5 min to 1 h; not complexed with LDL
Experimental: J774A.1 cells were plated in 8-well chambered slides (Nalge Nunc International). Cells were gently washed twice with PBS, pH 7.4 before 5 min or 1 h exposure to 50 μM dansyl derivative of cholesterol ozonation product 5d or 5e, dansyl cholesterol derivative 9c or 9d, or dansyl hydrazine diluted in media without FCS (0.05% v/v final DMSO concentration). [drawing 28] Media was removed by aspiration and cells were fixed immediately in 95% ice cold methanol for 5 min. Cells were mounted in glycerol containing Antifade reagent (Molecular Probes). Fluorescence images were documented using DeltaVision Deconvolution microscope (API, Issaquah WA) equipped with a Photometrics CH350L liquid cooled CCD camera attached to an Olympus IX—70 inverted microscope. […] All images were deconvolved using constrained iterative algorithms (10 iterations) of DeltaVision software (softWoRx, v2.5). The deconvolved images were subsequently processed using softWoRx, v2.5.
In some experiments, murine macrophage RAW 264.7 (ECACC 91062702) cells were grown in RPMI (Gibco) with 10% FCS at 37° C. with 5% CO2. For fluorescence imaging, cells were incubated on cover slips in 6-well chambered plates (Costar) for 12 h, gently washed 3 times in PBS at pH 7.4, and incubated with 50 μM dansyl derivative of cholesterol ozonation product 5d or 5e, dansyl cholesterol derivative 9c or 9d, in RPMI with 10% FCS for 5, 15, 30, and 60 min. A solution of the dansyl derivative was then added in DMSO [final DMSO, 0.05% (v/v)]. Media was removed by aspiration, and cells were washed twice with PBS, followed by fixing in paraformaldehyde (3.7% in PBS) for 10 min. Cover slips were mounted in MOWIOL 4-88 (Calbiochem). Microscopy was performed using an inverted Zeiss Axioscope 2 Plus fluorescence microscope, and images were obtained with a Zeiss Axiocam digital camera using Axiovision software (version 3.1). The data were collected using a 63× oil immersion lens and DAPI filter (excitation 360/emission 460), and images were processed with Axiovision software and Adobe software (Photoshop 6.0).

leukocyte cell lines = assay: Cytotoxicity to leukocyte cell lines (similar procedures); format: cell-based
Experimental: (§1) Cytotoxicity assays. WI-L2 human B-lymphocyte line, HAAE-1 human abdominal aortic endothelial line, MH-S murine alveolar macrophage line, and J774A.1 murine tissue macrophage line were obtained from the ATCC. Human aortic endothelial cells (HAEC) and human vascular smooth muscle cells (VSMS) were obtained from Cambrex Bio Science. Jurkat E6-1T-lymphocytes were kindly provided by Dr. J. Kaye (The Scripps Research Institute). Cells were cultured in ATCC-recommended media with 10% fetal calf serum. Cells were incubated in a controlled atmosphere at 37° C., with 5 or 7% CO2. For lactate dehydrogenase (LDH) release assays, adherent cells were harvested either by addition of 0.05% trypsin/EDTA or by scraping. The cells obtained were seeded onto 96-well microtiter plates (25,000 cells/well) and allowed to recover for 24-48 h. Cells were washed gently and media replaced with fresh media containing 5% fetal calf serum. […] Cytotoxicity was then determined by measuring lactate dehydrogenase (LDH) release from cells in culture. […] 100% Cytotoxicity was defined as the maximum amount of LDH released by dead cells as shown by trypan blue exclusion, or the highest amount of LDH detected upon lysis of cells by 0.9% Triton X-100. The IC50 values were determined by comparison of the raw duplicate data for concentration versus cytotoxicity (%) to non-linear regression analysis (Hill plot) using Graphpad v3.0 software for Macintosh.

THP-1 monocytes = assay: Monocyte morphology changes (differentiation into macrophages); format: cell-based, human; conditions: 12.5 or 25 μM, 7 days
Experimental: THP-1 monocytes in suspension were plated in 8-well chambered slides. […] Media containing appropriate treatment compounds was replaced after 4 days. […]

[1] = test system: WI-L2 human B-lymphocyte line; assay: LDH release cytotoxicity assay, WI-L2; format: cell-based; conditions: B-cell (WI-L2) cell line, concentration range of FIG. 6A
Experimental: as §1
The following cell lines were employed in this study: a human B-lymphocyte (WI-L2) described in Levy et al., Cancer 22, 517 (1968); a T-lymphocyte cell line (Jurkat E6.1) described in Weiss et al., J. Immunol. 133, 123 (1984); a vascular smooth muscle cell line (VSMC) and an abdominal aorta endothelial (HAEC) cell line described in Folkman et al., Proc. Natl. Acad. Sci. U.S.A. 76, 5217 (1979); a murine tissue macrophage (J774A.1) described in Ralph et al., J. Exp. Med. 143, 1528 (1976); and an alveolar macrophage cell line (MH-S) described in Mbawuike et al., J. Leukoc. Biol. 46, 119 (1989).

[2] = test system: T-lymphocyte cell line (Jurkat E6.1); assay: LDH release cytotoxicity assay, Jurkat; format: cell-based; conditions: T-cell (Jurkat) cell line, concentration range of FIG. 6B
Experimental: as §1, with “h.” for “h. Cells were washed gently and media replaced with fresh media containing 5% fetal calf serum.”, “Macintosh. […]” for “Macintosh.”

E-selectin = assay: Endothelial adhesion molecule expression ELISA, E-selectin; format: cell-based, human; conditions: HAAE-1, not complexed with LDL
Experimental: (§2) Endothelial cell surface adhesion molecule expression was measured by ELISA, using anti-human CD54 (ICAM-1), CD106 (VCAM-1) and CD62E (E-Selectin) antibodies (Leinco Technologies, Inc., St. Louis, Mo.). The ELISA method was modified from previously described procedures.
(§3) Cells were then incubated with antibodies to VCAM-1, E-selectin, or ICAM-1 diluted 1:400 in PBS containing 5% FCS at 37° C. for 30 min. Wells were washed two times with PBS, then incubated with horseradish peroxidase (HRP)-conjugated goat anti-mouse IgG (Southern Biotechnology Associates, Birmingham, Ala., USA) in PBS/5% FCS at 37° C. for 30 min. The wells were washed four times with PBS, then incubated with H2O2/3,3′,5,5′-tetramethyl-benzidine peroxidase substrate (Pierce Chemical, Rockford, Ill., USA) for 30 min in the dark. The reaction was stopped by adding 25 μl of 8 N H2SO4, and the plates read on a microplate reader, blanking on wells stained with only secondary antibody. Each assay was performed in triplicate and the data are reported as the mean±SEM as a percentage of the expression level of the vehicle. To study the effect of cholesterol ozonation product 5a concentration (5-50 μM) on E-selectin expression, the assay was performed in an identical fashion as described above, with each point being the mean±SEM of at least duplicate measurements.

VCAM-1 = assay: Endothelial adhesion molecule expression ELISA, VCAM-1; format: cell-based, human; conditions: HAAE-1, not complexed with LDL
Experimental: as §2, §3

ICAM-1 = assay: Endothelial adhesion molecule expression ELISA, ICAM-1; format: cell-based, human; conditions: HAAE-1, not complexed with LDL
Experimental: as §2, §3

With `C[C@H](CCCC(=O)NS(=O)(=O)c1cccc2c(N(C)C)cccc12)[C@H]1CCC2C3C(CC[C@@]21C)C1(C)CC[C@H](O)CC1(O)[C@@H]3C=O` (stereo partly drawn) [5e] the “uptake and localization in macrophages” value (J774A.1 macrophages) was “initial punctate cytosolic accumulation”.

With `CC(C)CCC[C@@H](C)[C@H]1CCC2C(CC=O)C([C@@]3(C)CCC=CC3=O)CC[C@@]21C` (stereo partly drawn) [6a, 5-Oxo-5,6-secocholest-3-en-6-al] the “cytotoxic to leukocyte cell lines” value (leukocyte cell lines) was “cytotoxic”.

`CC(C)CCC[C@@H](C)[C@H]1CC[C@H]2[C@@H]3C(=O)C=C4C[C@@H](O)CC[C@]4(C)[C@H]3CC[C@]12C` [7-KC, 7-ketocholesterol, reference compound] was tested, and the “THP-1 cell adherence (differentiation into macrophages)” value (THP-1 monocytes) was “began to adhere after 4 days”.

For `CC(C)CCC[C@@H](C)[C@H]1CCC2C3C(CC[C@@]21C)[C@@]1(C)CCC=C[C@@]1(O)[C@@H]3C=O` (stereo partly drawn) [7a, 5β-Hydroxy-B-norcholest-3-ene-6β-carboxaldehyde], the “cytotoxic to leukocyte cell lines” value (leukocyte cell lines) was “cytotoxic”.

For `CC(C)CCC[C@@H](C)[C@H]1CCC2C3C(CC[C@@]21C)[C@@]1(C)CCC=C[C@@]1(O)[C@@H]3CO` (stereo partly drawn) [7c], the “cytotoxic to leukocyte cell lines” value (leukocyte cell lines) was “cytotoxic”.

In the case of `C[C@H](CCCC(=O)NS(=O)(=O)c1cccc2c(N(C)C)cccc12)[C@H]1CCC2C3CC=C4C[C@@H](O)CCC4(C)C3CC[C@@]21C` (stereo partly drawn) [9d, reference compound], the “uptake and localization in macrophages” value (J774A.1 macrophages) is reported as “minimal fluorescence”.

With `CC(C)CCC[C@@H](C)[C@H]1CCC2[C@H](CC(=O)O)C([C@@]3(C)CC[C@H](O)CC3=O)CC[C@@]21C` (stereo partly drawn) [10a] the “cytotoxic to leukocyte cell lines” value (leukocyte cell lines) was “cytotoxic”.

In the case of `CC(C)CCC[C@@H](C)[C@H]1CCC2[C@H](CC=O)C([C@@]3(C)CCCCC(=O)O3)CC[C@@]21C` (stereo partly drawn) [11a], the “cytotoxic to leukocyte cell lines” value (leukocyte cell lines) is reported as “cytotoxic”.

For `CC(C)CCC[C@@H](C)[C@H]1CCC2C3C(C=O)=C4C=CCC[C@]4(C)C3CC[C@@]21C` (stereo partly drawn) [12a, B-norcholest-3,5-diene-6-carboxaldehyde], the “cytotoxic to leukocyte cell lines” value (leukocyte cell lines) was “cytotoxic”.

With `CC(C)CCC[C@@H](C)[C@H]1CC[C@H]2[C@@H]3CC=C4C[C@@H](O)CC[C@]4(C)[C@H]3CC[C@]12C` [compound 3, cholesterol, reference compound] the cytotoxicity [1] was “No cytotoxicity”, the cytotoxicity [2] was “No cytotoxicity” and the “selectin (E-selectin) expression” value (E-selectin) was “no effects”. The “integrin (VCAM-1) expression” value (VCAM-1) was “no effects”, the “integrin (ICAM-1) expression” value (ICAM-1) was “no effects” and the “THP-1 cell adherence (differentiation into macrophages)” value (THP-1 monocytes) was “induced no cell adherence”.
